Measurements taken from patent US9255295B2, “Method for evaluating the sensitizing potential of a test compound” (IMMUNOSEARCH, priority 2010, dated 2016).
Like-named read-outs stand apart in the source and are kept apart here.

Tested on: ARE gene family (AKR1B10, AKR1C1, AKR1C2, CYP1B1, FTH1P, FTL, G6PD, GCLM, NQO2, SLC7A11, TXNRD1, UGT1A1, UGT1A9, YWHAZ, CD36, CYP1A1, GCLC, HMOX1, NQO1, PSME2 …)

## O=CC=O [Glyoxal]
0.1%
  AHR NUMBER OF GENES grade: 0 (if this expression is lower, the grade is 0)
  AKR1B10 NUMBER OF GENES grade: 0 (if this expression is lower, the grade is 0)
  AKR1C1 NUMBER OF GENES grade: 0 (if this expression is lower, the grade is 0)
  AKR1C2 NUMBER OF GENES grade: 0 (if this expression is lower, the grade is 0)
  ARE >1.3 (number of genes): 0
  CD36 NUMBER OF GENES grade: 0 (if this expression is lower, the grade is 0)
  CYP1A1 NUMBER OF GENES grade: 0 (if this expression is lower, the grade is 0)
  CYP1B1 NUMBER OF GENES grade: 0 (if this expression is lower, the grade is 0)
  FTH1P NUMBER OF GENES grade: 0 (if this expression is lower, the grade is 0)
  FTL NUMBER OF GENES grade: 0 (if this expression is lower, the grade is 0)
  GCLC NUMBER OF GENES grade: 0 (if this expression is lower, the grade is 0)
  GCLM NUMBER OF GENES grade: 0 (if this expression is lower, the grade is 0)
  HMOX1 NUMBER OF GENES grade: 0 (if this expression is lower, the grade is 0)
  NQO1 NUMBER OF GENES grade: 0 (if this expression is lower, the grade is 0)
  NQO2 NUMBER OF GENES grade: 0 (if this expression is lower, the grade is 0)
  S100A8 NUMBER OF GENES grade: 0 (if this expression is lower, the grade is 0)
  SLC7A11 NUMBER OF GENES grade: 0 (if this expression is lower, the grade is 0)
  TOTAL ARE (number of genes): 0
  TXNRD1 NUMBER OF GENES grade: 0 (if this expression is lower, the grade is 0)
  UGT1A1 NUMBER OF GENES grade: 0 (if this expression is lower, the grade is 0)
  UGT1A9 NUMBER OF GENES grade: 0 (if this expression is lower, the grade is 0)
0.1%, compared to the control
  AHR expression: 0.9
  AKR1B10 expression: 0.6
  AKR1C1 expression: 0.8
  AKR1C2 expression: 0.8
  CD36 expression: 1.1
  CYP1A1 expression: 0.6
  CYP1B1 expression: 0.6
  FTH1P expression: 0.9
  FTL expression: 1.0
  GCLC expression: 1.0
  GCLM expression: 0.9
  HMOX1 expression: 1.0
  NQO1 expression: 1.0
  NQO2 expression: 0.8
  S100A8 expression: 0.7
  SLC7A11 expression: 1.0
  TXNRD1 expression: 1.0
  UGT1A1 expression: 0.9
  UGT1A9 expression: 0.3
1%
  AHR NUMBER OF GENES grade: 0 (if this expression is lower, the grade is 0)
  AKR1B10 NUMBER OF GENES grade: 0 (if this expression is lower, the grade is 0)
  AKR1C1 NUMBER OF GENES grade: 0 (if this expression is lower, the grade is 0)
  AKR1C2 NUMBER OF GENES grade: 0 (if this expression is lower, the grade is 0)
  ARE >1.3 (number of genes): 1
  CD36 expression compared to control: 1.1
  CD36 grade (NUMBER OF GENES): 0 (if this expression is lower, the grade is 0)
  CYP1A1 NUMBER OF GENES grade: 0 (if this expression is lower, the grade is 0)
  CYP1B1 NUMBER OF GENES grade: 0 (if this expression is lower, the grade is 0)
  FTH1P NUMBER OF GENES grade: 0 (if this expression is lower, the grade is 0)
  FTL NUMBER OF GENES grade: 0 (if this expression is lower, the grade is 0)
  GCLC NUMBER OF GENES grade: 0 (if this expression is lower, the grade is 0)
  GCLM NUMBER OF GENES grade: 0 (if this expression is lower, the grade is 0)
  HMOX1 NUMBER OF GENES grade: 0 (if this expression is lower, the grade is 0)
  NQO1 NUMBER OF GENES grade: 0 (if this expression is lower, the grade is 0)
  NQO2 NUMBER OF GENES grade: 0 (if this expression is lower, the grade is 0)
  S100A8 expression compared to control: 0.9
  S100A8 grade (NUMBER OF GENES): 0 (if this expression is lower, the grade is 0)
  SLC7A11 NUMBER OF GENES grade: 1 (If the expression is greater than 1.3 compared to the control, a grade of 11s given)
  TOTAL ARE (number of genes): 1
  TXNRD1 NUMBER OF GENES grade: 0 (if this expression is lower, the grade is 0)
  UGT1A1 NUMBER OF GENES grade: 0 (if this expression is lower, the grade is 0)
  UGT1A9 NUMBER OF GENES grade: 0 (if this expression is lower, the grade is 0)
1%, compared to the control
  AHR expression: 1.1
  AKR1B10 expression: 1.1
  AKR1C1 expression: 1.0
  AKR1C2 expression: 1.0
  CYP1A1 expression: 0.9
  CYP1B1 expression: 1.1
  FTH1P expression: 1.0
  FTL expression: 1.1
  GCLC expression: 1.1
  GCLM expression: 0.9
  HMOX1 expression: 0.9
  NQO1 expression: 1.1
  NQO2 expression: 1.0
  SLC7A11 expression: 1.4
  TXNRD1 expression: 0.9
  UGT1A1 expression: 1.2
  UGT1A9 expression: 0.6
10%
  AHR NUMBER OF GENES grade: 0 (if this expression is lower, the grade is 0)
  AKR1B10 NUMBER OF GENES grade: 0 (if this expression is lower, the grade is 0)
